Laboratory results: patent publication US11591284B2, “Compounds for the treatment of neuromuscular disorders” (NMD Pharma A/S, priority 2017, dated 2023)
Like-named read-outs stand apart in the source and are kept apart here.

What was measured:
[1] = test system: isolated rat soleus muscles; assay: Recovery of nerve-stimulated force in isolated rat soleus muscles exposed to sub-maximal tubocurarine; conditions: for 500 μM % change after addition: 500 μM compound
Description: FIGS. 3A-3B. […] The motor nerve was stimulated every 10 min for 2 s with 30 Hz with field stimulation using short duration pulses. […] Traces are shown before addition tubocurarine, after 40 min with tubocurarine, and after 110 min tubocurarine. […] This recovery of force was used in Table 1.
(§1) In all contraction experiments, isometric force production was determined and force produced during contractions was quantified by measuring the integral of the force response (AUC). Stimulation and force recordings have been described elsewhere. […] In these latter experiments, extracellular recordings of action potentials (M-waves) could be measured without temporal overlap with stimulation artefacts.
(§2) To initially confirm that inhibition of CIC-1 ion channels can be used to recover contractile force in muscle with reduced neuromuscular transmission, isolated nerve-muscle preparations were first exposed to either tubocurarine (FIG. 2A) or elevated Mg^2+ (FIG. 2B) and then a specific CIC-1 inhibitor (9-AC) was added.
To identify CIC-1 inhibitors that could be used for treatment of neuromuscular disorders we repeated the experiment shown in FIG. 2A but instead of adding 9-AC we added the compounds of interest in different concentrations within the range from 10 to 500 μM. […] For comparison with the muscle only exposed to tubocurarine (grey trace), the two traces have been overlaid. […] For comparison, muscles only exposed to tubocurarine have been included. The dotted line indicates the recovery of force with C8 when compared to the force production before its addition. This value was used in Table 1 for evaluation of the efficacy of the different compounds in recovering force.

[2] = test system: isolated rat soleus muscles; assay: Recovery of nerve-stimulated force in isolated rat soleus muscles exposed to 3.5 mM Mg2+
Description: as §1
The aim was to find compounds that by inhibition of CIC-1 channels can recover nerve-stimulated force under conditions of fatigue including conditions where fatigue is caused by compromised neuromuscular transmission. Neuromuscular transmission dysfunction can develop because of both pre- and/or post-synaptic complications in connection with a disorder or as part of neuromuscular blockade during/after surgery. In the initial series of drug testing, experiments were performed with isolated muscles in the presence of sub-maximal ACh receptor antagonist tubocurarine. Since the inclusion of tubocurarine caused a partial loss of neuromuscular transmission this experiment mimics the conditions in myasthenia gravis and neuromuscular blockade. To mimic conditions with pre-synaptic complication (Lambert Eaton syndrome, motor neuron disorder, polyneuropathy) the intact nerve-muscle preparations were incubated at elevated extracellular Mg^2+, which is known to suppress release of ACh from nerve terminals of motor neurons.
as §2
The next series of experiments determined whether the compounds that recovered nerve-stimulated force in the presence of tubocurarine could also recover nerve-stimulated force at elevated extracellular Mg^2+.

[3] = Pharmacokinetic analysis of a single I.P. dose in rats; type: in vivo, Sprague-Dawley rats; conditions: rat, single I.P. dose 10 mg/kg, plasma
Description: This part of the study was performed by Pipeline Biotech A/S (Spørring, Denmark). […] Plasma concentrations (free and bound) were determined by OnTarget Chemistry (Uppsala, Sweden, Project No.: PB243-001).
Before conducting in vivo experiments with animal models of myasthenia gravis, some pharmacokinetic details were obtained for C8 in response to one-bolus I.P. injection.

[4] = test system: isolated human muscles; conditions: human muscle; 150 μM (FIG. 8A)
[5] = test system: rat soleus muscle; type: cell-based; conditions: 10 and 25 μM; 1 μM μ-conotoxin GiiiB
[6] = test system: soleus muscles; assay: Mg2+ concentration required to depress nerve-stimulated force by 50% (Kd,Mg2+) in soleus muscles; design: species or system rat; conditions: combination of C8 and 3,4-diaminopyridine
Description: FIGS. 6A-6E. […] Muscles from 4-week-old rats were stimulated to contract by activating the motor nerve with short duration pulses in field stimulation. Muscles contracted every 10 min for 2 s in response to 30 Hz stimulation. Four different experimental conditions were used. […] C) similar to A) but this muscle had been pre-incubated with 3,4-AP. […] The force integral (AUC) was determined at each extracellular Mg^2+ concentration. AUC was plotted against Mg^2+ concentration and the data was fitted to a sigmoidal function. This provided the extracellular Mg^2+ concentration that was required to reduce the nerve-stimulated force to 50% (Mg50) under the four different conditions (see Table 5).
While the use of tubocurarine mimics conditions with reduced neuromuscular transmission due to post-synaptic dysfunction (myasthenia gravis, neuromuscular blockade), the experiments with elevated extracellular Mg^2+ mimics conditions with pre-synaptic dysfunction akin to a range of neuromuscular disorders including Lambert Eaton syndrome, motor neuron disorders and polyneuropathy. […] Based on this it was determined whether recovery of nerve-stimulated force at elevated extracellular Mg^2+ with CIC-1 inhibiting compounds could be added to force recovery with 3,4-AP. […] To quantify the effect of compounds on Mg^2+ sensitivity the force at the different Mg^2+ concentrations was determined. […]

[7] = test system: isolated rat soleus muscles; assay: Recovery of nerve-stimulated force in isolated rat soleus muscles with ACh receptors inhibited by 2 μM rocuronium; conditions: 50 μM compound added after 2 μM rocuronium had reduced force to 51±5%; 8 muscles; p<0.01
Description: In a separate series of experiments with 8 isolated rat soleus muscles, ACh receptors were inhibited using 2 μM rocuronium, which is a clinically used neuromuscular blocking agent. Under these conditions the nerve-stimulated force was reduced to 51±5% of force before rocuronium. […] This illustrates the potential of these compounds to be used as reversal agents.

[8] = test system: rats; assay: Rotarod running performance of rats after I.P. tubocurarine; type: in vivo, rat; conditions: 20 mg/kg I.P., 2 hrs before tubocurarine (0.13 mg/kg I.P.); tested 21 min after tubocurarine; sham around 2%
Description: FIGS. 9A-9B. […] FIG. 9A illustrates the design of the experiments. Prior to Day One the animals had been familiarized to the rotarod in three training sessions distributed over two days.
(§3) In both series of experiments, running performance was tested on a rotarod using a protocol where the rod was accelerated gradually over a 5 min period, and the running time and covered distance before falling off the rod were measured. […] Experiments with tubocurarine were carried out over two days, and on each day the effect of tubocurarine on running performance was tested. On the first day only tubocurarine was injected. […] On the second day, the animals were first allowed to run on the rotarod, and all animals performed normally. […] The allocation of the animals into the two groups (C8 or sham) was random and unknown to the experimenter (blinded experimental design).
In the first series of in vivo experiments, myasthenia gravis was simply mimicked by I.P. injection of tubocurarine (0.13 mg/kg) in animals that had been familiarized to running on the rotarod. On the first of two consecutive days, tubocurarine was injected I.P. and the running performance of the animal was tested 21 minutes after this injection. On the second day of experimentation, the animals first performed a test run to ensure that they were no longer affected by the tubocurarine injected the day before. […]

[9] = test system: rats; assay: Rotarod running performance in passive myasthenia gravis induced with MAB35 monoclonal antibody; type: in vivo, rat; conditions: MAB35 model, compared with sham
Description: FIG. 10. […] Prior to I.P. injection of MAB35 the animals had been familiarized to the rotarod over three training sessions distributed over two days. […] After this treatment performance was monitored every second hour. *Indicates significant different as evaluated using student t-test.
as §3
In experiments with MAB35, animals were first familiarized with the rotarod over two consecutive days and then injected I.P. with MAB35. After injection, rotarod performance was then again monitored regularly over the consecutive two days. […] A considerable number of animals, however, became moribund failing to walk and they had altered ventilation (rapid) and pronounced ptosis. These animals were not included in experiments. […]

[10] = 150 μM compound, % change in AUC force compared to AUC after 40 min in tubocurarine, before addition
[11] = % change in AUC force compared to AUC after 40 min in tubocurarine, before addition

## CC(C(=O)O)S(=O)(=O)c1ccc(F)cc1 (stereo not shown) [Compound C6, 2-(4-fluorobenzenesulfonyl)propanoic acid]
[1]; [10]
  150 μM % change after addition: −8%
[1]; [11]
  500 μM % change after addition: 9%

## COCC(C)C(Oc1ccc(Br)cc1)C(=O)O (stereo not shown) [Compound C21, 2-(4-bromophenoxy)-4-methoxy-3-methylbutanoic acid]
[1]; [10]
  150 μM % change after addition: 7%
[1]; [11]
  500 μM % change after addition: 36%

## O=C(O)c1c2ccccc2cc2ccccc12 [Compound 9-AC, reference compound]
[2]; 9-AC added at elevated Mg2+ (FIG. 2B)
  recovery of force and M-wave signal: marked recovery of both force and M-wave signal
[1]; 9-AC added after tubocurarine (FIG. 2A)
  recovery of force and M-wave signal: marked recovery of both force and M-wave signal

## CCC(Oc1ccc(Cl)cc1)C(=O)O (stereo not shown) [Compound C7, 2-(4-chlorophenoxy)butanoic acid]
[1]; [10]
  150 μM % change after addition: 0%
[1]; [11]
  500 μM % change after addition: 40%

## C[C@H](Oc1ccc(Br)cc1)C(=O)O [Compound C8, (2S)-2-(4-bromophenoxy)propanoic acid]
[3]
  CI_obs: 48.69 mL/h
  VD_obs: 259.62 mL
[4]
  contractile force at elevated K+ and TTX: markedly recovery
[5]
  EPP amplitude compared to control conditions: significantly larger EPPs
[2]; 50 μM compound, 3.5 mM Mg2+, % change in AUC force vs column 3 (after 70 min at elevated Mg2+)
  50 μM % change after addition: 13 ± 4%
[2]; 100 μM compound, 3.5 mM Mg2+, % change in AUC force vs column 3 (after 70 min at elevated Mg2+)
  100 μM % change after addition: 26 ± 5%
[6]
  effect of combination on recovery of neuromuscular transmission: unexpected synergistic effect
[7]
  nerve-stimulated contractile force, % of force before rocuronium: 81±4%
[8]
  increase in running distance on Day Two compared to Day One: around 150%
[9]; 20 mg/kg I.P.
  rotarod running performance after injection: decline was reduced
[9]; 30 mg/kg I.P.
  rotarod running performance after injection: clear recovery of performance
[1]; [10]
  150 μM % change after addition: 23%

## Cl.NCC(Oc1ccc(F)cc1)C(=O)O (stereo not shown) [Compound C9, 3-amino-2-(4-fluorophenoxy)propanoic acid hydrochloride]
[1]; [10]
  150 μM % change after addition: −13%
[1]; [11]
  500 μM % change after addition: 5%

## C[C@H](OCc1ccccc1)C(=O)O [Compound C5, (2S)-2-(benzyloxy)propanoic acid]
[1]; [10]
  150 μM % change after addition: 1%
[1]; [11]
  500 μM % change after addition: 42%

## CC(Oc1ccc(Cl)cc1)C(=O)Oc1ccc(Cl)cc1 (stereo not shown) [Compound C11, 4-chlorophenyl 2-(4-chlorophenoxy)propanoate]
[1]
  150 μM % change after addition: 54%
